Laboratory results taken from patent US11839616B2, “Ocular pharmaceutical compositions” (THE REGENTS OF THE UNIVERSITY OF CALIFORNIA, priority 2017, dated 2023).
pEC50: −log10 of the molar value. “Also recorded” adds a separate entry of the source. Like-named read-outs stand apart in the source and are kept apart here. One block for each molecule: values may come before it.

What was measured:
ENaC [1] = experiment: open-circuit ocular surface potential difference (PD) in anesthetized rabbits, ENaC; details: rabbit, normal Cl- solution with amiloride 100 μM
Experimental: Open-circuit transepithelial potential difference (PD, in mV) at the ocular surface was measured continuously in anesthetized rabbits using a procedure modified from that established in mice. […] Rabbits were intubated and anesthetized with isoflurane, and respiratory rate, blood pressure and body temperature were monitored. For PD recording, solutions (see below) were serially perfused at 10 mL/min through PE-90 plastic tubing using a gravity multi-reservoir pinch-valve system (ALA Scientific, Westbury, NY) and a variable-flow peristaltic pump (medium flow model; Thermo Fisher Scientific, Fair Lawn, NJ). A probe catheter was fixed onto an adjustable stereotaxic frame with the tip immersed in solution contacting the ocular surface. Excess fluid was aspirated by continuous suction (low-powered wall vacuum) using ⅛-inch tubing (inner diameter 3/32 inch) positioned 3 mm from the orbit in order to maintain near-constant perfusate volume in contact with cornea, bulbar conjunctiva and palpebral conjunctiva without fluid runoff. The measuring electrode contacted the perfusion catheter and was connected to a high-impedance voltmeter (IsoMilivolt Meter; World Precision Instruments, Sarasota, FL). The reference electrode was grounded using a winged, 25-gauge needle filled with normal saline inserted subcutaneously in the abdomen. […]

ENaC [2] = experiment: short-circuit current in freshly isolated rabbit conjunctiva, amiloride; details: amiloride 10 μM
Experimental: Short-circuit current was measured in freshly isolated rabbit conjunctiva, as described^16 with modification. Rabbits were euthanized by injection of 150 mg/kg euthasol into the marginal ear vein. The entire eyeball with eyelids intact was removed from the orbit to preserve conjunctival epithelium integrity. Within 10 min a sheet of forniceal and palpebral conjunctiva was dissected, mounted onto a P2304 tissue slider (Physiologic Instruments, San Diego, CA), and placed into the Ussing chamber. The apical and basolateral chambers contained (in mM): 120 NaCl, 3 KCl, 1 CaCl2, 1 MgCl2, 10 glucose, 25 NaHCO3 and 5 HEPES, pH 7.4. Solutions were bubbled with 95% O2/5% CO2 and maintained at 37° C. Hemichambers were connected to a DVC-1000 voltage clamp (World Precision Instruments Inc., Sarasota, FL) via Ag/AgCl electrodes and 3 M KCl agar bridges.

CFTR-deficient mice = details: cited from earlier work
mice [3] = details: cited from earlier work
cAMP = details: prior studies; cited from earlier work
CFTR [4] = molecular target: CFTR (Homo sapiens, UniProt P13569); details: cited from earlier work; for extent of CFTR activation / pEC50: cell cultures; for pEC50: read-out: EC50 of CFTR activation
Chain of CFTR (Homo sapiens, UniProt P13569) (P13569 whole entry, species assumed): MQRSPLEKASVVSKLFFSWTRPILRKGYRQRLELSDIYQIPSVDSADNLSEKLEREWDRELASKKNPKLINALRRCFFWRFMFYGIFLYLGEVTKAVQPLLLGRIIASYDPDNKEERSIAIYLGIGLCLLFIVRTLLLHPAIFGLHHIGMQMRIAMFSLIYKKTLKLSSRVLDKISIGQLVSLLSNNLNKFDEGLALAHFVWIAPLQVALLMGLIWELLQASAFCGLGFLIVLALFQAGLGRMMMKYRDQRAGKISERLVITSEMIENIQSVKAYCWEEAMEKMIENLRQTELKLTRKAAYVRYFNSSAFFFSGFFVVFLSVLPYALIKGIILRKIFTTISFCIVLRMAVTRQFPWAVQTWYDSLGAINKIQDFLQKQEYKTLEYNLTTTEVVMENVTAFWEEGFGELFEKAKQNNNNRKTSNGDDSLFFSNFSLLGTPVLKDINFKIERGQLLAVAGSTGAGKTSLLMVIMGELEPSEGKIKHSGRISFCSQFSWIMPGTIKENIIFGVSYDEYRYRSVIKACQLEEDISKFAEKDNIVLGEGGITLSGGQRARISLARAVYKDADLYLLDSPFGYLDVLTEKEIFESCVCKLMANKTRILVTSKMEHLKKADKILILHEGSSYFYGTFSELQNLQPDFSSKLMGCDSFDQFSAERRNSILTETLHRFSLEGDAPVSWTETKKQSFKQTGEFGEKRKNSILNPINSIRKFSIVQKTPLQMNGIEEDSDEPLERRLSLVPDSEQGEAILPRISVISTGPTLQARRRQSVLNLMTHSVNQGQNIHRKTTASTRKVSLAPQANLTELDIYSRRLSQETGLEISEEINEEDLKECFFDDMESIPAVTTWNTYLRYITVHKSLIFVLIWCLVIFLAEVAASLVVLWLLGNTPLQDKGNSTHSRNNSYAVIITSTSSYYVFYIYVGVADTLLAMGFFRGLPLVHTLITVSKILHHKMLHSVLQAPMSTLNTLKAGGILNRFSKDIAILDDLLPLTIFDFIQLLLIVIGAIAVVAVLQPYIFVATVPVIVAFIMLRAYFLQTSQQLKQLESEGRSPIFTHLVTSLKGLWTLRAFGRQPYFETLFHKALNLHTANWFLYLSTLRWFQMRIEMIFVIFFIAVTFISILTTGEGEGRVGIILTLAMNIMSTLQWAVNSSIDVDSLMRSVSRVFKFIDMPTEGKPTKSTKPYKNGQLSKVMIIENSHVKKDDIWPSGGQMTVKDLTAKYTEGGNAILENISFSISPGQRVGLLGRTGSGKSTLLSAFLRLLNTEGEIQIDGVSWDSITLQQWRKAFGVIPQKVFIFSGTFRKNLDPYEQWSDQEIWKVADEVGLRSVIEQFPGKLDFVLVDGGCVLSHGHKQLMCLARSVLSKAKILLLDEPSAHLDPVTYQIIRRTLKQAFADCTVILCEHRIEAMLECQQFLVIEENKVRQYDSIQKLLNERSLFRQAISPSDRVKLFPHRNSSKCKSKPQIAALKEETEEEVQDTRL

CFTR [5] = molecular target: T1, CFTR (Oryctolagus cuniculus, UniProt Q00554); experiment: open-circuit ocular surface potential difference (PD) in anesthetized rabbits, CFTR; type: in vivo; details: rabbit
T1 construct: ocular surface PD measurements provide information about CFTR function in its native environment; from tissue; host or cells: rabbit ocular surface in vivo (cornea and conjunctiva); freshly isolated rabbit forniceal and palpebral conjunctiva
T1 sequence (Q00554 whole entry): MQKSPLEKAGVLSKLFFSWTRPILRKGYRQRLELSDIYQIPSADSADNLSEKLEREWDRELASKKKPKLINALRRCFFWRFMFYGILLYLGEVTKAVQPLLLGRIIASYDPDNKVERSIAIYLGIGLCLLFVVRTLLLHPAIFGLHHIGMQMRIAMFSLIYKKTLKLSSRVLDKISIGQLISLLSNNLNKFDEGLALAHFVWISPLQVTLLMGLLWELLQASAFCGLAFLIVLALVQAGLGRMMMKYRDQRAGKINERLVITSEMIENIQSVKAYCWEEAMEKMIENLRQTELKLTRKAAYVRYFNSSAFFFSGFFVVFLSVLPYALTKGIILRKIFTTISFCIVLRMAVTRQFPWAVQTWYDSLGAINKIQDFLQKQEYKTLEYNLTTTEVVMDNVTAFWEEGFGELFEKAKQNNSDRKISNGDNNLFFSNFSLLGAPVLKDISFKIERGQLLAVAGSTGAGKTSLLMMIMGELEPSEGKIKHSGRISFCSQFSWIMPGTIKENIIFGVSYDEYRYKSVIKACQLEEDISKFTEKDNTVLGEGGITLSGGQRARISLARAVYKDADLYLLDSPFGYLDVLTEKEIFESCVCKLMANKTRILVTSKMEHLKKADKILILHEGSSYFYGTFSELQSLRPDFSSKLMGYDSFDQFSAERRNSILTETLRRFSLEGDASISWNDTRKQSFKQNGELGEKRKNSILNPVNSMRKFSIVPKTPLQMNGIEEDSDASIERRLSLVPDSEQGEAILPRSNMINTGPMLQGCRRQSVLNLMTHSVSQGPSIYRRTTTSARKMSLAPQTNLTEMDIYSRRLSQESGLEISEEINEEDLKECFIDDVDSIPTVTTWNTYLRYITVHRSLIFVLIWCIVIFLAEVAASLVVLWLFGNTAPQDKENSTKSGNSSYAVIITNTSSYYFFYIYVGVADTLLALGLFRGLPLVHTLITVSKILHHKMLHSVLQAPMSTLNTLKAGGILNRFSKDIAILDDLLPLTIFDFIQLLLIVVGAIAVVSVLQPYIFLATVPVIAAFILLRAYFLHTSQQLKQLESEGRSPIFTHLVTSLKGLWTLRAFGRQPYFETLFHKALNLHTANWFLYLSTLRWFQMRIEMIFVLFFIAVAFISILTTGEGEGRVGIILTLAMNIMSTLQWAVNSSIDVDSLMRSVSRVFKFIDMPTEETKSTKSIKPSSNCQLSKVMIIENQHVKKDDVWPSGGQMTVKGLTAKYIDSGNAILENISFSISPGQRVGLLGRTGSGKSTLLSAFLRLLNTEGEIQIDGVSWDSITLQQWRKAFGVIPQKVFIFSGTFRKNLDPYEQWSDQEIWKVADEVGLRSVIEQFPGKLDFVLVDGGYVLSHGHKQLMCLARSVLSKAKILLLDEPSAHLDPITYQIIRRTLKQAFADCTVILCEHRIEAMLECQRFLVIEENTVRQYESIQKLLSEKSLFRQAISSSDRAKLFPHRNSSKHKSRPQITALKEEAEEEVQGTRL
Experimental: Open-circuit transepithelial potential difference (PD, in mV) at the ocular surface was measured continuously in anesthetized rabbits using a procedure modified from that established in mice. […] Rabbits were intubated and anesthetized with isoflurane, and respiratory rate, blood pressure and body temperature were monitored. For PD recording, solutions (see below) were serially perfused at 10 mL/min through PE-90 plastic tubing using a gravity multi-reservoir pinch-valve system (ALA Scientific, Westbury, NY) and a variable-flow peristaltic pump (medium flow model; Thermo Fisher Scientific, Fair Lawn, NJ). A probe catheter was fixed onto an adjustable stereotaxic frame with the tip immersed in solution contacting the ocular surface. Excess fluid was aspirated by continuous suction (low-powered wall vacuum) using ⅛-inch tubing (inner diameter 3/32 inch) positioned 3 mm from the orbit in order to maintain near-constant perfusate volume in contact with cornea, bulbar conjunctiva and palpebral conjunctiva without fluid runoff. The measuring electrode contacted the perfusion catheter and was connected to a high-impedance voltmeter (IsoMilivolt Meter; World Precision Instruments, Sarasota, FL). The reference electrode was grounded using a winged, 25-gauge needle filled with normal saline inserted subcutaneously in the abdomen. The measuring and reference electrodes consisted of Ag/AgCl with 3 M KCl agar bridges.
All solutions contained 10 M indomethacin to prevent CFTR activation by prostaglandins.

[6] = pharmacokinetics in tear fluid by LC/MS; type: in vivo; details: rabbit
Experimental: Compound A was quantified by liquid chromatography/mass spectroscopy (LC/MS) at 15 min, 1 hour, 2 hours, 6 hours and 24 hours after a single, 3-nmol topical dose. To recover Compound A at indicated times, three eye washes of 30 μL sterile PBS were done with solution recovered from the lateral and medial canthi after manual eyelid blinking using 50-μL glass capillary tubes. Pooled washes were diluted in three volumes of ethyl acetate, centrifuged at 13,000 rpm for 15 min, and the collected supernatant was analyzed by LC/MS (Waters 2695 HPLC with Micromass ZQ).^14 LC was done on an Xterra MS C18 column (2.1 mm×100 mm, 3.5 μm) with 0.2 mL/min water/acetonitrile containing 0.1% formic acid, 12 min linear gradient, 5-95% acetonitrile.
Corresponding compound concentrations in tear fluid (open circles, right ordinate) were estimated using tear volumes deduced from STT measurements in FIG. 2A.

rabbits [7] = experiment: chronic administration, tear volume by STT; type: in vivo; details: rabbit, 3 nmol twice-daily for 28 days
Experimental: (§1) Tear production was measured using the anesthetized Schirmer Tear Test (STT, Eagle Vision, Memphis TN). To minimize reflex tearing, one drop of 0.5% proparacaine hydrochloride (Akorn, Lake Forest, TL) was placed onto the corneal surface and excess fluid was absorbed at the medial canthus using eye spear sponges (Fine Science Tools, Foster City, CA). After 5 min the notched strip was inserted into the lower lateral conjunctival fornix, maintaining contact with the lateral cornea. The wetted length (mm) of the strip indicated by blue dye appearance was read after 5 min.
In chronic treatment studies, Compound A (3 nmol, or formulation control) was given twice daily (8 am and 4 pm) for 28 days. Two mL of blood was collected from the marginal ear vein in EDTA tubes. Rabbits were then euthanized using 150 mg/kg euthasol, and ocular tissues, serum and peripheral organs were collected. […]
In chronic treatment studies, eyes were treated twice daily for 28 days as described above. STT, intraocular pressure (IOP), and central corneal thickness were measured on days 0, 7, 14, 21 and 28. […] IOP was measured with a Tonolab rebound tonometer (Colonial Medical Supply, Windham, NH). Central corneal thickness was measured using the Corneo-Gage Plus 2 pachymeter (Sonogage Inc., Cleveland, OH). […]

rabbits [8] = experiment: chronic administration, ocular toxicity (clinical examination, histology); type: in vivo; details: rabbit
Experimental: In chronic treatment studies, eyes were treated twice daily for 28 days as described above. STT, intraocular pressure (IOP), and central corneal thickness were measured on days 0, 7, 14, 21 and 28. Slit lamp examinations were performed on days 0, 14 and 28 by a board-certified ophthalmologist blinded to treatment status. STT was done one hour after the first treatment of the day (9 am). IOP was measured with a Tonolab rebound tonometer (Colonial Medical Supply, Windham, NH). Central corneal thickness was measured using the Corneo-Gage Plus 2 pachymeter (Sonogage Inc., Cleveland, OH). […] One minute later, photographs of the eye were taken with a digital camera and staining was evaluated according to a 12-point scale as described^17: each corneal quadrant was scored in a blinded fashion on a 3-point scale: grade 0, no staining; grade 1, sporadic staining (involving <25% of the total surface); grade 2, diffuse punctate staining (25-75%); and grade 3, coalesced punctate staining (≥75%). The total grade is reported as the sum of scores from all 4 quadrants, ranging from 0 to 12. Conjunctival congestion, chemosis, discharge, corneal haze or neovascularization, anterior chamber cellular reaction or flare, iris neovascularization, lens opacification or loss of red reflex, were each rated using a modified McDonald-Shadduck scale on a four-point scale, where zero is normal.
A subset of chronically treated eyes were enucleated with eyelids intact after transcardial perfusion with PBS followed by 4% paraformaldehyde, and left overnight in 4° C. in 30% sucrose. […] Cryosections (8 μm thickness) were stained with hematoxylin and eosin (H&E) using a standard protocol.

CFTR [9] = molecular target: T1, CFTR; experiment: short-circuit current in freshly isolated rabbit conjunctiva, CFTR; type: cell-based
Experimental: Short-circuit current was measured in freshly isolated rabbit conjunctiva, as described^16 with modification. Rabbits were euthanized by injection of 150 mg/kg euthasol into the marginal ear vein. The entire eyeball with eyelids intact was removed from the orbit to preserve conjunctival epithelium integrity. Within 10 min a sheet of forniceal and palpebral conjunctiva was dissected, mounted onto a P2304 tissue slider (Physiologic Instruments, San Diego, CA), and placed into the Ussing chamber. The apical and basolateral chambers contained (in mM): 120 NaCl, 3 KCl, 1 CaCl2, 1 MgCl2, 10 glucose, 25 NaHCO3 and 5 HEPES, pH 7.4. […] Hemichambers were connected to a DVC-1000 voltage clamp (World Precision Instruments Inc., Sarasota, FL) via Ag/AgCl electrodes and 3 M KCl agar bridges.
In separate electrophysiological studies, CFTR activation was measured in freshly isolated conjunctiva ex vivo by short-circuit current analysis.

rabbits [10] = experiment: Schirmer Tear Test II after single topical dose (pharmacodynamics); type: in vivo, rabbit
Experimental: as §1
Serial STT measurements were done before and at 1, 3, 6, 9, 12 and 24 hours following application of a single 30-μL drop of Compound A formulation (or vehicle alone) into the conjunctival sac. Both eyes received the same treatment to control for potential contralateral effects of a given treatment. Pharmacokinetics and Tissue Distribution
Compound A was tested for its efficacy in augmenting tear fluid production in rabbits. Prior work identified a formulation (0.325% CMC in Ringer's solution containing 0.015% BAC and 1% DMSO) that stably solubilized Compound A and was effective when delivered topically to mice.^15 A single application of 3 nmol Compound A ([…] of a 100 µM solution) increased tear volume by ˜60% for at least 9 hours compared to vehicle (FIG. 3A). […] When 3 nmol of Compound A was delivered in a more viscous formulation containing 0.625% (instead of 0.3%) CMC, to potentially increase Compound A ocular surface residence time, compound efficacy was unchanged (FIG. 3C).

[11] = tissue levels by LC/MS following chronic administration; type: in vivo; details: rabbit, 3 nmol twice-daily for 28 days
Experimental: In chronic treatment studies, Compound A (3 nmol, or formulation control) was given twice daily (8 am and 4 pm) for 28 days. Two mL of blood was collected from the marginal ear vein in EDTA tubes. Rabbits were then euthanized using 150 mg/kg euthasol, and ocular tissues, serum and peripheral organs were collected. Using a surgical microscope, 150 μL of aqueous humor was collected through the peripheral cornea using a 25-gauge needle, and 300 μL of vitreous fluid was aspirated through the pars plana with a 23-gauge needle. Following transcardial perfusion with heparinized phosphate-buffered saline (PBS), eyes were enucleated with lids intact, and the cornea, iris/ciliary body, lens, bulbar, forniceal and palpebral conjunctiva, and retina of both eyes were dissected, weighed, homogenized in 1:4 mixture of water:ethyl acetate (10 mL/1 g tissue) and centrifuged (3000 rpm for 15 min). Plasma, aqueous and vitreous samples were each mixed with 3 volumes of ethyl acetate and centrifuged for 15 min at 13,200 rpm, and the supernatant was evaporated and re-dissolved in HPLC eluent (100 μL of 1:3 water:acetonitrile containing 0.1% formic acid) for LC/MS analysis. Also, brain, kidney, heart and liver were removed, weighed, mixed with 1:4 mixture of water:ethyl acetate (10 mL/1 g tissue), and homogenized. The homogenized samples were vortexed and centrifuged (3000 rpm for 15 min), and the ethyl acetate-containing supernatant was evaporated, and then re-dissolved in HPLC eluent for LC/MS analysis. The lower limit of detection for Compound A was ˜0.2 pg/mg of homogenized tissue or biological fluid, which was defined as giving a signal-to-noise ratio >3.

[12] = liver; in vitro microsomal stability; cited from earlier work
P2Y2 receptors = P2Y2 receptors (Homo sapiens, UniProt P41231); details: phase III trials in the United States; cited from earlier work
Chain of P2Y2 receptors (P41231 whole entry): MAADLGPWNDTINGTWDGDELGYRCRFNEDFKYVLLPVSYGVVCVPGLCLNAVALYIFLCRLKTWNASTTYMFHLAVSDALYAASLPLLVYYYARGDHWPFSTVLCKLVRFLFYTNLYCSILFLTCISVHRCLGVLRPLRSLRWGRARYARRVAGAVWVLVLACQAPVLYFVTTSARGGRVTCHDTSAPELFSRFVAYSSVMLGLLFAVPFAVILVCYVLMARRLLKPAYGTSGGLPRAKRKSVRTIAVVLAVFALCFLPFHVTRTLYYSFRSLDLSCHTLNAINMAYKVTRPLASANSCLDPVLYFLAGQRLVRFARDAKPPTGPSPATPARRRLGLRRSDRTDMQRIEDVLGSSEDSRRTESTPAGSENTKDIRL

mice [13] = details: lacrimal gland ablation, three times daily; cited from earlier work
[14] = rabbit, single topical dose of 3 nmol
[15] = 25 picomol topical administration

Molecule: N=C(N)NC(=O)c1nc(Cl)c(N)nc1N [amiloride]
change in ocular surface PD (ENaC [1]): initial depolarization | effect on short-circuit current (ENaC [2]): no effect

time to maximal CFTR activation at the ocular surface (PD) (CFTR [5]; after exposure): within a few minutes | change in ocular surface PD (CFTR [5]; low Cl- + amiloride, Compound A 1 and 10 μM): substantial depolarization | time at predicted therapeutic concentrations in tear fluid ([6]; 3-nmol dose, concentrations estimated using tear volumes from STT): at least several hours | Compound A recovered from tear fluid over time ([6]; single topical dose of 3 nmol, three eye washes): approximate exponential decline | change in short-circuit current (CFTR [9]; 1 and then 10 μM Compound A after forskolin 25 nM): further increased | pEC50 (CFTR [9]; rabbit conjunctiva ex vivo, data at 1 vs. 10 μM, read-out: apparent EC50 of CFTR activation (short-circuit current)): > 6.00 | level in aqueous and vitreous fluid, lens and iris/ciliary body [11]: near or below the limit of detection | level in blood, heart, brain, liver and kidney [11]: below the limit of detection | level in vitreous fluid [11]: not detected | rank of levels in ocular tissues [11]: cornea>conjunctiva>>retina | concentration at 28 days ([11]; retina, topical, read-out: level in retina, equivalent concentration): < 10 nM
Molecule: CNc1nc(Nc2ccccc2)nc(OCC(F)(F)C(F)F)n1 [Compound A, N-Methyl-N′-phenyl-6-(2,2,3,3-tetrafluoropropoxy)-1,3,5-triazine-2,4-diamine]
effect in CFTR-deficient mice (CFTR-deficient mice): without effect; also recorded: absence of Compound A effect | duration of doubled tear volume (mice [3]; delivered topically): four | tear volume (mice [3]; delivered topically): doubled tear volume | elevation of total cellular cAMP (cAMP): without detectable elevation | extent of CFTR activation (CFTR [4]): fully activated CFTR | pEC50 (CFTR [4]): ~6.60 | potency of CFTR activation (CFTR [4]; prior studies): nanomolar potency | tear volume (STT) (rabbits [7]): augmented tear volume in a sustained fashion without tachyphylaxis | IOP, vehicle vs. treated eyes (rabbits [8]; 3 nmol twice-daily for 28 days): No significant differences | Lissamine green staining (rabbits [8]; 3 nmol twice-daily for 28 days): no injury to the ocular surface | central corneal thickness, vehicle vs. treated eyes (rabbits [8]; 3 nmol twice-daily for 28 days): No significant differences | slit-lamp evaluation (rabbits [8]; 3 nmol twice-daily for 28 days): no evidence of conjunctival hyperemia, anterior chamber inflammation, or lens opacification | histology of cornea, conjunctiva, lens, ciliary body, retina (rabbits [8]; day 28): no pathological changes | acute ocular irritation (blinking, behavior) (rabbits [8]; following topical administrations): No apparent acute ocular irritation | increase in tear fluid volume (rabbits [10]; from STT wetting using reported relationship between STT wetting and volume): 2.7 µL | compound efficacy in more viscous formulation (rabbits [10]; rabbit, 3 nmol, 0.625% (instead of 0.3%) CMC): unchanged | increase in tear volume compared to vehicle (rabbits [10]; rabbit, single application of 3 nmol, 0.3% CMC): ~60% | tear production (rabbits [10]; rabbit, single dose 0.75 nmol): no significant increase | activity on tear production (rabbits [10]; rabbit, single dose 1.5 nmol): reduced duration of activity | augmentation in tear production by STT, average over 9 hours (rabbits [10]; [14]): 5.3 mm | duration of increase in tear volume / tear secretion (rabbits [10]; [14]): at least 9 hours | hepatic metabolism [12]: rapidly metabolized by the liver; also recorded: rapid predicted hepatic metabolism

Molecule: O=c1ccn([C@@H]2O[C@H](COP(=O)(O)OP(=O)(O)OP(=O)(O)OP(=O)(O)OC[C@H]3O[C@@H](n4ccc(=O)[nH]c4=O)[C@H](O)[C@@H]3O)[C@@H](O)[C@H]2O)c(=O)[nH]1 [diquafosol]
efficacy in dry eye (P2Y2 receptors): did not show efficacy

Molecule: CCN(CC)c1nc(Nc2ccccc2)nc(OC(C(F)(F)F)C(F)(F)F)n1 [Compound C]
duration of increase in tear volume (mice [3]; [15]): 8 h | tear volume (mice [3]; [15]): sustained increase in tear volume | extent of CFTR activation (CFTR [4]): fully activated CFTR | pEC50 (CFTR [4]): ~7.52 | corneal epithelial disruption (mice [13]): prevented corneal epithelial disruption | pathology when administered after development of dry eye (mice [13]): reversed pathology | tear volume (mice [13]): normalized tear volume

effect on the PD changes (CFTR [5]; CFTRinh-172 10 μM in final perfusion solution): largely reversed | effect on the increases in short-circuit current (CFTR [9]; inhibitor added last): inhibited
Molecule: 3-[(3-Trifluoromethyl)phenyl]-5-[(4-carboxyphenyl)methylene]-2-thioxo-4-thiazolidinone [CFTRinh-172, reference compound]
